Measurements reported in US9562085B2, “Antimicrobial peptide” (priority 2013, dated 2017).
Non-standard residues stand in square brackets, D forms with d. Residues, ends and D or L forms follow the SMILES beside them.

tested on: S. aureus JAR; type: cell-based; conditions: JAR, 2 h
Protocol: S. aureus JAR is described in Campoccia et al. (Int. J. Artif. Organs, 2008 September; 31(9):841-7).
For the in vitro killing assay with P10 variants, S. aureus JAR ([…] CFU/ml) were incubated for 2 hours at 37° C. with various concentrations of the peptides in PBS or in PBS/human plasma (1/1, v/v). […] The LC99.9 is the average value of two independent experiments.

Compound	LC99.9 (μM) (50% plasma) [µM]	LC99.9 (μM) (PBS) [µM]
Ac-EYKKIVEKLKRWLRQVLR-NH2 [Peptide 1302-61, JEYKKIVEKLKRWLRQVLRB]	102.4	2.4
Ac-LAREYKKIVEKLKRWLRQVLKTLR-NH2 [Peptide 1302-50, JLAREYKKIVEKLKRWLRQVLKTLRB]	51.2	0.8
Ac-LAREYKKIVEKLKRWLRQVLRNLR-NH2 [Peptide 1302-53, JLAREYKKIVEKLKRWLRQVLRNLRB]	51.2	1.6
Ac-LAREYKKIVEKLKRWLRNVLRTLR-NH2 [Peptide 1302-42, JLAREYKKIVEKLKRWLRNVLRTLRB]	76.8	1.6
Ac-LAREYKKIVEKLKRWLRQVIRTLR-NH2 [Peptide 1302-47, JLAREYKKIVEKLKRWLRQVIRTLRB]	76.8	1.6
CC[C@H](C)[C@H](NC(=O)[C@H](CCCCN)NC(=O)[C@H](CCCCN)NC(=O)[C@H](Cc1ccc(O)cc1)NC(=O)[C@H](CCC(=O)O)NC(=O)[C@H](CCCNC(=N)N)NC(=O)[C@H](C)NC(=O)[C@H](CC(C)C)NC(C)=O)C(=O)N[C@H](C(=O)N[C@@H](CCC(=O)O)C(=O)N[C@@H](CCCCN)C(=O)N[C@@H](CC(C)C)C(=O)N[C@@H](CCCCN)C(=O)N[C@@H](CCCNC(=N)N)C(=O)N[C@@H](Cc1c[nH]c2ccccc12)C(=O)N[C@@H](CC(C)C)C(=O)N[C@@H](CCCNC(=N)N)C(=O)N[C@@H](CCC(N)=O)C(=O)N[C@H](C(=O)N[C@@H](CC(C)C)C(=O)N[C@H](CCCNC(=N)N)C(=O)N[C@H](C(=O)N[C@@H](CC(C)C)C(=O)N[C@@H](CCCNC(=N)N)C(N)=O)[C@@H](C)O)C(C)C)C(C)C [Peptide 1301-21, JLAREYKKIVEKLKRWLRQVLrTLRB] (Ac-LAREYKKIVEKLKRWLRQVL[dR]TLR-NH2)	38.4	0.6
Ac-LAREYKKIVEKLKRWLRSVLRTLR-NH2 [Peptide 1302-44, JLAREYKKIVEKLKRWLRSVLRTLRB]	76.8	1.6
CC[C@H](C)[C@H](NC(=O)[C@H](CCCCN)NC(=O)[C@H](CCCCN)NC(=O)[C@H](Cc1ccc(O)cc1)NC(=O)[C@@H](CCC(=O)O)NC(=O)[C@H](CCCNC(=N)N)NC(=O)[C@H](C)NC(=O)[C@H](CC(C)C)NC(C)=O)C(=O)N[C@H](C(=O)N[C@@H](CCC(=O)O)C(=O)N[C@@H](CCCCN)C(=O)N[C@@H](CC(C)C)C(=O)N[C@@H](CCCCN)C(=O)N[C@@H](CCCNC(=N)N)C(=O)N[C@@H](Cc1c[nH]c2ccccc12)C(=O)N[C@@H](CC(C)C)C(=O)N[C@@H](CCCNC(=N)N)C(=O)N[C@@H](CCC(N)=O)C(=O)N[C@H](C(=O)N[C@@H](CC(C)C)C(=O)N[C@@H](CCCNC(=N)N)C(=O)N[C@H](C(=O)N[C@@H](CC(C)C)C(=O)N[C@@H](CCCNC(=N)N)C(N)=O)[C@@H](C)O)C(C)C)C(C)C [Peptide 1301-4, JLAReYKKIVEKLKRWLRQVLRTLRB] (Ac-LAR[dE]YKKIVEKLKRWLRQVLRTLR-NH2)	38.4	0.6
CC[C@@H](C)[C@@H](NC(=O)[C@H](NC(=O)[C@@H](CCC(=O)O)NC(=O)[C@@H](CCCCN)NC(=O)[C@@H](CC(C)C)NC(=O)[C@@H](CCCCN)NC(=O)[C@@H](CCCNC(=N)N)NC(=O)[C@@H](Cc1c[nH]c2ccccc12)NC(=O)[C@@H](CC(C)C)NC(=O)[C@@H](CCCNC(=N)N)NC(=O)[C@@H](CCC(N)=O)NC(=O)[C@H](NC(=O)[C@@H](CC(C)C)NC(=O)[C@@H](CCCNC(=N)N)NC(=O)[C@H](NC(=O)[C@@H](CC(C)C)NC(=O)[C@H](N)CCCNC(=N)N)[C@H](C)O)C(C)C)C(C)C)C(=O)N[C@H](CCCCN)C(=O)N[C@H](CCCCN)C(=O)N[C@H](Cc1ccc(O)cc1)C(=O)N[C@H](CCC(=O)O)C(=O)N[C@H](CCCNC(=N)N)C(=O)N[C@H](C)C(=O)N[C@H](CC(C)C)C(N)=O [Peptide 1241-03, rltrlvqrlwrklkevikkyeralB] (H-[dR][dL][dT][dR][dL][dV][dQ][dR][dL][dW][dR][dK][dL][dK][dE][dV][dI][dK][dK][dY][dE][dR][dA][dL]-NH2)	>102.4	3.2
Ac-LAREYKKIVEKLKRWLRQVLRALR-NH2 [Peptide 1302-54, JLAREYKKIVEKLKRWLRQVLRALRB]	51.2	0.8
CC[C@H](C)[C@H](NC(=O)[C@H](CCCCN)NC(=O)[C@H](CCCCN)NC(=O)[C@H](Cc1ccc(O)cc1)NC(=O)[C@H](CCC(=O)O)NC(=O)[C@H](CCCNC(=N)N)NC(=O)[C@H](C)NC(=O)[C@@H](CC(C)C)NC(C)=O)C(=O)N[C@H](C(=O)N[C@@H](CCC(=O)O)C(=O)N[C@@H](CCCCN)C(=O)N[C@@H](CC(C)C)C(=O)N[C@@H](CCCCN)C(=O)N[C@@H](CCCNC(=N)N)C(=O)N[C@@H](Cc1c[nH]c2ccccc12)C(=O)N[C@@H](CC(C)C)C(=O)N[C@@H](CCCNC(=N)N)C(=O)N[C@@H](CCC(N)=O)C(=O)N[C@H](C(=O)N[C@@H](CC(C)C)C(=O)N[C@@H](CCCNC(=N)N)C(=O)N[C@H](C(=O)N[C@@H](CC(C)C)C(=O)N[C@@H](CCCNC(=N)N)C(N)=O)[C@@H](C)O)C(C)C)C(C)C [Peptide 1301-1, JlAREYKKIVEKLKRWLRQVLRTLRB] (Ac-[dL]AREYKKIVEKLKRWLRQVLRTLR-NH2)	38.4	0.6
Ac-LAREYKKIVERLKRWLRQVLRTLR-NH2 [Peptide 1302-31, JLAREYKKIVERLKRWLRQVLRTLRB]	102.4	3.2
Ac-LAREYKHIVEKLKRWLRQVLRTLR-NH2 [Peptide 1302-30, JLAREYKHIVEKLKRWLRQVLRTLRB]	102.4	3.2
CC[C@H](C)[C@H](NC(=O)[C@H](CCCCN)NC(=O)[C@H](CCCCN)NC(=O)[C@H](Cc1ccc(O)cc1)NC(=O)[C@H](CCC(=O)O)NC(=O)[C@H](CCCNC(=N)N)NC(=O)[C@H](C)NC(=O)[C@H](CC(C)C)NC(C)=O)C(=O)N[C@@H](C(=O)N[C@@H](CCC(=O)O)C(=O)N[C@@H](CCCCN)C(=O)N[C@@H](CC(C)C)C(=O)N[C@@H](CCCCN)C(=O)N[C@@H](CCCNC(=N)N)C(=O)N[C@@H](Cc1c[nH]c2ccccc12)C(=O)N[C@@H](CC(C)C)C(=O)N[C@@H](CCCNC(=N)N)C(=O)N[C@@H](CCC(N)=O)C(=O)N[C@H](C(=O)N[C@@H](CC(C)C)C(=O)N[C@@H](CCCNC(=N)N)C(=O)N[C@H](C(=O)N[C@@H](CC(C)C)C(=O)N[C@@H](CCCNC(=N)N)C(N)=O)[C@@H](C)O)C(C)C)C(C)C [Peptide 1301-9, JLAREYKKIvEKLKRWLRQVLRTLRB] (Ac-LAREYKKI[dV]EKLKRWLRQVLRTLR-NH2)	38.4	0.6
CC[C@H](C)[C@H](NC(=O)[C@H](CCCCN)NC(=O)[C@H](CCCCN)NC(=O)[C@H](Cc1ccc(O)cc1)NC(=O)[C@H](CCC(=O)O)NC(=O)[C@H](CCCNC(=N)N)NC(=O)[C@H](C)NC(=O)[C@H](CC(C)C)NC(C)=O)C(=O)N[C@H](C(=O)N[C@H](CCC(=O)O)C(=O)N[C@@H](CCCCN)C(=O)N[C@@H](CC(C)C)C(=O)N[C@@H](CCCCN)C(=O)N[C@@H](CCCNC(=N)N)C(=O)N[C@@H](Cc1c[nH]c2ccccc12)C(=O)N[C@@H](CC(C)C)C(=O)N[C@@H](CCCNC(=N)N)C(=O)N[C@@H](CCC(N)=O)C(=O)N[C@H](C(=O)N[C@@H](CC(C)C)C(=O)N[C@@H](CCCNC(=N)N)C(=O)N[C@H](C(=O)N[C@@H](CC(C)C)C(=O)N[C@@H](CCCNC(=N)N)C(N)=O)[C@@H](C)O)C(C)C)C(C)C [Peptide 1301-10, JLAREYKKIVeKLKRWLRQVLRTLRB] (Ac-LAREYKKIV[dE]KLKRWLRQVLRTLR-NH2)	38.4	0.6
Ac-LAREYKKIVPKLKRWLRQVPRTLR-NH2 [Peptide 1302-15, JLAREYKKIVPKLKRWLRQVPRTLRB]	76.8	>3.2
CC[C@H](C)[C@H](NC(=O)[C@H](CCCCN)NC(=O)[C@H](CCCCN)NC(=O)[C@H](Cc1ccc(O)cc1)NC(=O)[C@H](CCC(=O)O)NC(=O)[C@H](CCCNC(=N)N)NC(=O)[C@H](C)NC(=O)[C@H](CC(C)C)NC(C)=O)C(=O)N[C@H](C(=O)N[C@@H](CCC(=O)O)C(=O)N[C@@H](CCCCN)C(=O)N[C@@H](CC(C)C)C(=O)N[C@@H](CCCCN)C(=O)N[C@@H](CCCNC(=N)N)C(=O)N[C@@H](Cc1c[nH]c2ccccc12)C(=O)N[C@H](CC(C)C)C(=O)N[C@@H](CCCNC(=N)N)C(=O)N[C@@H](CCC(N)=O)C(=O)N[C@H](C(=O)N[C@@H](CC(C)C)C(=O)N[C@@H](CCCNC(=N)N)C(=O)N[C@H](C(=O)N[C@@H](CC(C)C)C(=O)N[C@@H](CCCNC(=N)N)C(N)=O)[C@@H](C)O)C(C)C)C(C)C [Peptide 1301-16, JLAREYKKIVEKLKRWlRQVLRTLRB] (Ac-LAREYKKIVEKLKRW[dL]RQVLRTLR-NH2)	38.4	0.6
Ac-LAREYPKIVEKLKRWLRPVLRTLR-NH2 [Peptide 1302-14, JLAREYPKIVEKLKRWLRPVLRTLRB]	102.4	3.2
Ac-LAREYRKIVEKLKRWLRQVLRTLR-NH2 [Peptide 1302-27, JLAREYRKIVEKLKRWLRQVLRTLRB]	76.8	0.8

same assay, conditions: statements referring to Tables 2-6

Compound	antimicrobial activity, in words
CC[C@@H](C)[C@@H](NC(=O)[C@H](NC(=O)[C@@H](CCC(=O)O)NC(=O)[C@@H](CCCCN)NC(=O)[C@@H](CC(C)C)NC(=O)[C@@H](CCCCN)NC(=O)[C@@H](CCCNC(=N)N)NC(=O)[C@@H](Cc1c[nH]c2ccccc12)NC(=O)[C@@H](CC(C)C)NC(=O)[C@@H](CCCNC(=N)N)NC(=O)[C@@H](CCC(N)=O)NC(=O)[C@H](NC(=O)[C@@H](CC(C)C)NC(=O)[C@@H](CCCNC(=N)N)NC(=O)[C@H](NC(=O)[C@@H](CC(C)C)NC(=O)[C@H](N)CCCNC(=N)N)[C@H](C)O)C(C)C)C(C)C)C(=O)N[C@H](CCCCN)C(=O)N[C@H](CCCCN)C(=O)N[C@H](Cc1ccc(O)cc1)C(=O)N[C@H](CCC(=O)O)C(=O)N[C@H](CCCNC(=N)N)C(=O)N[C@H](C)C(=O)N[C@H](CC(C)C)C(N)=O [Peptide 1241-03, rltrlvqrlwrklkevikkyeralB] (H-[dR][dL][dT][dR][dL][dV][dQ][dR][dL][dW][dR][dK][dL][dK][dE][dV][dI][dK][dK][dY][dE][dR][dA][dL]-NH2)	possesses antimicrobial activity
